Measured values: publication PMC5046141, “Discovery of Isoquinolinoquinazolinones as a Novel Class of Potent PPARγ Antagonists with Anti-adipogenic Effects” (Scientific Reports, 2016)

How the values were obtained:
PPARγ2 = molecular target: T1, PPARγ2 (Mus musculus, UniProt P37238); test: PPRE-Luc luciferase reporter assay of PPARγ2-induced transcriptional activity in 3T3-L1 cells; type: cell-based; conditions: for inhibition of PPARγ2 transfection (transcriptional activity), with rosiglitazone stimulation / inhibition of PPARγ2 transfection (transcriptional activity), compound alone: 5 μM; for inhibition of PPARγ2 transfection (transcriptional activity), compound alone: without rosiglitazone; for IC50: 3T3-L1 cotransfected with PPARγ2 and PPRE-Luc, read-out: IC50 with respect to PPARγ2-induced transcriptional activity
T1 construct: expressed in transfected cells; host or cells: 3T3-L1 (mouse preadipocytes), pCS4 CMV vector
T1 sequence (P37238 1-505): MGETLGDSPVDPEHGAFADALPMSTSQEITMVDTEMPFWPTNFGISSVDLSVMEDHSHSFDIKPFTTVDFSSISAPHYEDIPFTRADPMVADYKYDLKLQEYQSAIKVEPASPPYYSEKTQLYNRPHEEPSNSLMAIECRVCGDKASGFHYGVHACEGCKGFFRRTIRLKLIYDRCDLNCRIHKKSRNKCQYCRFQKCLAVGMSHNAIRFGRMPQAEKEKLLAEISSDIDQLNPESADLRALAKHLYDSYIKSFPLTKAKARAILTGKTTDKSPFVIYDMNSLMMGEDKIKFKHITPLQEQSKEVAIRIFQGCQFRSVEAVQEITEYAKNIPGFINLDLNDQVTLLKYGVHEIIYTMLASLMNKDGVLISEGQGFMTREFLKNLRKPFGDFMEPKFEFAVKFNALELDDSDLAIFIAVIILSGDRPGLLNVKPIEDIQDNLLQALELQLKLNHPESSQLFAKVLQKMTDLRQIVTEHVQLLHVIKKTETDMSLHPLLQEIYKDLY
Description: To analyze whether isoquinolinoquinazolinones inhibit the transactivation of PPARγ, 3T3-L1 cells were cotransfected with full-length PPARγ2 expression vector with a peroxisome proliferator response element (PPRE)-driven luciferase reporter gene (PPRE-Luc) that has been reported to respond to PPARγ[23][24]. […] Titration curves were generated using Graph Pad Prism®, and the IC50 value of each compound with respect to PPARγ2-induced transcriptional activity was determined.
The transcription activity was determined in 3T3-L1 cells transiently co-transfected with PPRE-driven luciferase reporter gene (PPRE-Luc) and PPARγ2 expression vector. […] After 24 h of transfection, the cells were cultured with indicated combination for 12 h. Luciferase activity was measured after 36 h.
For plasmids expressing PPARγ2, full length PPARγ2 (mouse, 1518 bp: NCBI Reference Sequence: NP_035276.2) was subcloned into CMV promoter-derived mammalian expression vector (pCS4). Plasmids for C285G, R288G mutant PPARγ2 were generated by PCR-based site-directed mutagenesis and also subcloned into CMV promoter-derived mammalian expression vector (pCS4).
3T3-L1 cells were transfected for indicated combinations of expression plasmids along with a luciferase reporter plasmid (PPRE-Luc). PPRE-Luc contains the consensus PPAR responsive element (PPRE). pCMV-β-gal was co-transfected for normalization of transfection efficiency. 24 h after transfection, cells were treated with indicated compounds for 12 h. Luciferase activities were measured using a luciferase reporter assay kit (Promega, Madison, WI, USA). Experiments were performed in triplicate and repeated at least three times.

3T3-L1 preadipocytes = test: Oil Red O staining assay of adipocyte differentiation; type: cell-based, mouse; conditions: for inhibition at 25 µM: Mus musculus, 3T3-L1, relative absorbance from Oil Red O staining at 25 μM, read-out: Inhibitory activity (%) on adipocyte differentiation
Description: The GW9662-mediated inhibition of PPARγ was confirmed using an Oil Red O staining assay to measure adipocyte differentiation. To investigate whether the novel compounds could inhibit adipocyte differentiation, 3T3-L1 preadipocytes were incubated with differentiation medium (MDI; insulin, dexamethasone, and isobutyl methyl xanthine) in the presence of increasing concentrations of isoquinolinoquinazolinones. Adipogenesis was analyzed using Oil Red O staining after treatment with the compounds.
The mouse preadipocyte cell line 3T3-L1 was maintained at 37 °C in humidified air with 5% CO2. 3T3-L1 cells were cultured in Dulbecco’s modified Eagle medium (DMEM; Life Technologies) supplemented with 10% bovine serum (BS; Gibco Invitrogen, Carlsbad, California, USA) as growth medium. For adipocyte differentiation, cells were cultured for 2 days to full confluence in a 24-well plate and the growth medium was then replaced (day 0) with DMEM supplemented with 10% fetal bovine serum (FBS, Gibco Invitrogen, Carlsbad, California, USA), 5 μg/mL insulin (Sigma, St. Louis, Missouri, USA), 0.5 mM 3-isobutyl-1-methylxanthine (Sigma), and 1 μM dexamethasone (Sigma). After 48 h, the differentiation medium was replaced (day 2) with DMEM + 10% FBS containing 5 μg/mL insulin, and the cells were allowed to accumulate lipid droplets until experimental use.
The accumulation of lipids signifying the formation of adipocytes was observed by staining the differentiated cells with Oil Red O. Following differentiation, cells were washed twice with phosphate-buffered saline (PBS), fixed with 10% formalin for 60 min. Oil Red O stock solution (0.5%) was prepared in isopropanol and filtered in cellulose nitrate filters. Cells were stained with Oil Red O diluted 6:4 in water for 1 h at room temperature. Excess Oil Red O dye was washed off twice with distilled water and then dried. The stained lipid droplets within cells were visualized using an optical microscope and photographed with a digital camera at 100× magnification.

Row | inhibition of PPARγ2 transfection (transcriptional activity), with rosiglitazone stimulation (PPARγ2) [%] | inhibition of PPARγ2 transfection (transcriptional activity), compound alone (PPARγ2) [%] | IC50 (PPARγ2) [µM] | SMILES | inhibition at 25 µM (3T3-L1 preadipocytes) [%] | Inhibitory activity (%) on adipocyte differentiation (3T3-L1 preadipocytes; relative absorbance from Oil Red O staining at 25 μM, 25 µM) [%]
1 | 48 | 46 | 4.47 | O=C(Nc1ccccc1)c1cc([N+](=O)[O-])ccc1Cl [GW9662, reference compound] | 51.4 | 
2 |  |  | 5.02 | COc1cc2cc3n(c(=O)c2cc1OC)CNc1ccc(Cl)cc1-3 [Compound 8n, 2-Chloro-10,11-dimethoxy-5H-isoquinolino[2,3-c]quinazolin-8(6H)-one] | 71.5 | 
3 | 88 | 82 | 2.43 | COc1cc2cc3n(c(=O)c2cc1OC)CNc1cc(Cl)ccc1-3 [Compound 8o, 3-Chloro-10,11-dimethoxy-5H-isoquinolino[2,3-c]quinazolin-8(6H)-one] | 82.9 | 82.4
